Assay results published in patent publication US20230399341A1, “7-PHENYL SUBSTITUTED 2-AMINOQUINAZOLINE INHIBITORS OF HPK1” (MERCK SHARP & DOHME LLC, priority 2020, published 2023).

target: T1, Human HPK1, catalytic domain (Homo sapiens, UniProt Q92918); experiment: HPK1-SLP76 TR-FRET Assay; type: biochemical; conditions: 75 pM HPK1, ATP 10 uM, SLP76 10 nM, 30 min pre-incubation, 60 min reaction
T1 sequence (Q92918 1-346): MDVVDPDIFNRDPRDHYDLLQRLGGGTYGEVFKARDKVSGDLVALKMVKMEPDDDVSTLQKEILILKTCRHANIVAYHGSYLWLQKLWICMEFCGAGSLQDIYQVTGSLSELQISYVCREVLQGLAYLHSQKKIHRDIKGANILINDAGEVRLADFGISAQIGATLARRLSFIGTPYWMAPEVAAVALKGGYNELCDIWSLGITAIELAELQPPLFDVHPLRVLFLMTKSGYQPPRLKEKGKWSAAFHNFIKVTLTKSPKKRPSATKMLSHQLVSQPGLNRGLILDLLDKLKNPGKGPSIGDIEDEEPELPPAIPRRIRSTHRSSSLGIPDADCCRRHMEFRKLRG

SMILES | IC50 [pM]
COc1cc2c(cc1Nc1ncc3c(N)c(F)c(-c4ccccc4-c4ccnn4C)cc3n1)CN(C)CC2 [Compound 2-65, 6-fluoro-N~2~-(6-methoxy-2-methyl-1,2,3,4-tetrahydroisoquinolin-7-yl)-7-[2-(1-methyl-1H-pyrazol-5-yl)phenyl]quinazoline-2,5-diamine] | 16600
COc1nc(C)ccc1Nc1ncc2c(N)c(F)c(-c3cnc4c(c3C)NCCO4)cc2n1 [Compound 2-66, 6-fluoro-N~2~-(2-methoxy-6-methylpyridin-3-yl)-7-(8-methyl-2,3-dihydro-1H-pyrido[2,3-b][1,4]oxazin-7-yl)quinazoline-2,5-diamine] | 722
Cc1c(-c2cc3nc(Nc4ccc(N5CCOC5=O)cc4)ncc3c(N)c2F)cnc2c1NCCO2 [Compound 2-67, 3-(4-{[5-amino-6-fluoro-7-(8-methyl-2,3-dihydro-1H-pyrido[2,3-b][1,4]oxazin-7-yl)quinazolin-2-yl]amino}phenyl)-1,3-oxazolidin-2-one] | 50.8
COc1nc(C2(C#N)CC2)ccc1Nc1ncc2c(N)c(F)c(-c3cnc4c(c3C)NCCO4)cc2n1 [Compound 2-68, 1-(5-{[5-amino-6-fluoro-7-(8-methyl-2,3-dihydro-1H-pyrido[2,3-b][1,4]oxazin-7-yl)quinazolin-2-yl]amino}-6-methoxypyridin-2-yl)cyclopropane-1-carbonitrile] | 14300
COc1cc(F)ccc1Nc1ncc2c(N)c(F)c(-c3cnc4c(c3C)NCCO4)cc2n1 [Compound 2-69, 6-fluoro-N~2~-(4-fluoro-2-methoxyphenyl)-7-(8-methyl-2,3-dihydro-1H-pyrido[2,3-b][1,4]oxazin-7-yl)quinazoline-2,5-diamine] | 510
Cc1c(-c2cc3nc(Nc4ccc5c(c4)CN(C)CC5)ncc3c(N)c2F)cnc2c1NCCO2 [Compound 2-70, 6-fluoro-7-(8-methyl-2,3-dihydro-1H-pyrido[2,3-b][1,4]oxazin-7-yl)-N˜2˜-(2-methyl-1,2,3,4-tetrahydroisoquinolin-7-yl)quinazoline-2,5-diamine] | 50.8
COc1ccccc1Nc1ncc2c(N)c(F)c(-c3cnc4c(c3C)NCCO4)cc2n1 [Compound 2-71, 6-fluoro-N~2~-(2-methoxyphenyl)-7-(8-methyl-2,3-dihydro-1H-pyrido[2,3-b][1,4]oxazin-7-yl)quinazoline-2,5-diamine] | 254
COc1cc2c(cc1Nc1ncc3c(N)c(F)c(-c4cnc5c(c4C)NCCO5)cc3n1)CN(C(C)C)CC2 [Compound 2-72, 6-fluoro-N~2~-[6-methoxy-2-(propan-2-yl)-1,2,3,4-tetrahydroisoquinolin-7-yl]-7-(8-methyl-2,3-dihydro-1H-pyrido[2,3-b][1,4]oxazin-7-yl)quinazoline-2,5-diamine] | 117
Cc1c(-c2cc3nc(Nc4ccc5c(c4)CN(C)CC54CC4)ncc3c(N)c2F)cnc2c1NCCO2 [Compound 2-73, 6-fluoro-7-(8-methyl-2,3-dihydro-1H-pyrido[2,3-b][1,4]oxazin-7-yl)-N~2~- (2′-methyl-2′,3′-dihydro-1′H-spiro[cyclopropane-1,4′-isoquinolin]-7′-yl)quinazoline-2,5-diamine] | 50.8
CNC(=O)c1ccc(Nc2ncc3c(N)c(F)c(-c4cnc5c(c4C)NCCO5)cc3n2)c(OC)c1 [Compound 2-74, 4-{[5-amino-6-fluoro-7-(8-methyl-2,3-dihydro-1H-pyrido[2,3-b][1,4]oxazin-7-yl)quinazolin-2-yl]amino}-3-methoxy-N-methylbenzamide] | 266
COc1cc2c(cc1Nc1ncc3c(N)c(F)c(-c4cnc5c(c4C)NCCO5)cc3n1)CN(C)CC2(C)C [Compound 2-75, 6-fluoro-N~2~-(6-methoxy-2,4,4-trimethyl-1,2,3,4-tetrahydroisoquinolin-7-yl)-7-(8-methyl-2,3-dihydro-1H-pyrido[2,3-b][1,4]oxazin-7-yl)quinazoline-2,5-diamine] | 325
Cc1c(-c2cc3nc(Nc4ccc5c(c4)CN(C(C)C)CC5)ncc3c(N)c2F)cnc2c1NCCO2 [Compound 2-76, 6-fluoro-7-(8-methyl-2,3-dihydro-11H-pyrido[2,3-b][1,4]oxazin-7-yl)-N˜2˜-[2-(propan-2-yl)-1,2,3,4-tetrahydroisoquinolin-7-yl]quinazoline-2,5-diamine] | 32.1
COc1ccc(Nc2ncc3c(N)c(F)c(-c4cnc5c(c4C)NCCO5)cc3n2)c(C)n1 [Compound 2-77, 6-fluoro-N~2~-(6-methoxy-2-methylpyridin-3-yl)-7-(8-methyl-2,3-dihydro-1H-pyrido[2,3-b][1,4]oxazin-7-yl)quinazoline-2,5-diamine] | 782
Cc1c(-c2cc3nc(Nc4ccc5c(c4)CN(C)C5=O)ncc3c(N)c2F)cnc2c1NCCO2 [Compound 2-78, 5-{[5-amino-6-fluoro-7-(8-methyl-2,3-dihydro-1H-pyrido[2,3-b][1,4]oxazin-7-yl)quinazolin-2-yl]amino}-2-methyl-2,3-dihydro-1H-isoindol-1-one] | 19.8
CNC(=O)C1(c2ccc(Nc3ncc4c(N)c(F)c(-c5cnc6c(c5C)NCCO6)cc4n3)cc2)CCCCC1 [Compound 2-80, 1-(4-((5-amino-6-fluoro-7-(8-methyl-2,3-dihydro-1H-pyrido[2,3-b][1,4]oxazin-7-yl)quinazolin-2-yl)amino)phenyl)-N-methylcyclohexane-1-carboxamide] | 72.8
CNC(=O)C1(c2ccc(Nc3ncc4c(N)c(F)c(-c5cnc6c(c5C)NCCO6)cc4n3)cc2)CC1 [Compound 2-81, 1-(4-((5-amino-6-fluoro-7-(8-methyl-2,3-dihydro-1H-pyrido[2,3-b][1,4]oxazin-7-yl)quinazolin-2-yl)amino)phenyl)-N-methylcyclopropane-1-carboxamide] | 44.1
CNC(=O)C1(c2ccc(Nc3ncc4c(N)c(F)c(-c5cnc6c(c5C)NCCO6)cc4n3)cc2)CCC1 [Compound 2-82, 1-(4-((5-amino-6-fluoro-7-(8-methyl-2,3-dihydro-1H-pyrido[2,3-b][1,4]oxazin-7-yl)quinazolin-2-yl)amino)phenyl)-N-methylcyclobutane-1-carboxamide] | 30.9
CNC(=O)C1(c2ccc(Nc3ncc4c(N)c(F)c(-c5cnc6c(c5C)NCCO6)cc4n3)cc2)CCCC1 [Compound 2-83, 1-(4-((5-amino-6-fluoro-7-(8-methyl-2,3-dihydro-1H-pyrido[2,3-b][1,4]oxazin-7-yl)quinazolin-2-yl)amino)phenyl)-N-methylcyclopentane-1-carboxamide] | 41.7
Cc1c(-c2cc3nc(Nc4ccc(CS(C)(=O)=O)nc4)ncc3c(N)c2F)cnc2c1NCCO2 [Compound 2-84, 6-fluoro-7-(8-methyl-2,3-dihydro-1H-pyrido[2,3-b][1,4]oxazin-7-yl)-N2-(6-((methylsulfonyl)methyl)pyridin-3-yl)quinazoline-2,5-diamine] | 22.2
Cc1c(-c2cc3nc(Nc4cc5c(cc4C(N)=O)CCN(C)C5)ncc3c(N)c2F)cnc2c1NCCO2 [Compound 2-87, 7-((5-amino-6-fluoro-7-(8-methyl-2,3-dihydro-1H-pyrido[2,3-b][1,4]oxazin-7-yl)quinazolin-2-yl)amino)-2-methyl-1,2,3,4-tetrahydroisoquinoline-6-carboxamide] | 100000
COc1cc2c(cc1Nc1ncc3c(N)c(F)c(-c4cnc5c(c4C)NCCO5)cc3n1)CCN(C)C2 [Compound 2-88, 6-fluoro-N2-(7-methoxy-2-methyl-1,2,3,4-tetrahydroisoquinolin-6-yl)-7-(8-methyl-2,3-dihydro-1H-pyrido[2,3-b][1,4]oxazin-7-yl)quinazoline-2,5-diamine] | 377
CCS(=O)(=O)Cc1ccc(Nc2ncc3c(N)c(F)c(-c4cnc5c(c4C)NCCO5)cc3n2)cc1 [Compound 2-89, N2-(4-((ethylsulfonyl)methyl)phenyl)-6-fluoro-7-(8-methyl-2,3-dihydro-1H-pyrido[2,3-b][1,4]oxazin-7-yl)quinazoline-2,5-diamine] | 11.7
COc1cc2c(cc1Nc1ncc3c(N)c(F)c(-c4cnc5c(c4C)NCCO5)c(Cl)c3n1)CN(C)CC2 [Compound 2-90, (+ and −)-8-chloro-6-fluoro-N~2~-(6-methoxy-2-methyl-1,2,3,4-tetrahydroisoquinolin-7-yl)-7-(8-methyl-2,3-dihydro-1H-pyrido[2,3-b][1,4]oxazin-7-yl)quinazoline-2,5-diamine] | 35.5
Cc1c(-c2c(F)c(N)c3cnc(Nc4ccc(CS(C)(=O)=O)cc4)nc3c2Cl)cnc2c1NCCO2 [Compound 2-91, (+ or −)-8-chloro-6-fluoro-7-(8-methyl-2,3-dihydro-1H-pyrido[2,3-b][1,4]oxazin-7-yl)-N~2~- {4-[(methylsulfonyl)methyl]phenyl}quinazoline-2,5-diamine] | 1320
Cc1c(-c2c(F)c(N)c3cnc(Nc4ccc(CS(C)(=O)=O)cc4)nc3c2Cl)cnc2c1NCCO2 [Compound 2-92, (+ or −)-8-chloro-6-fluoro-7-(8-methyl-2,3-dihydro-1H-pyrido[2,3-b[1,4]oxazin-7-yl)-N~2~- {4-[(methylsulfonyl)methyl]phenyl}quinazoline-2,5-diamine] | 39.9
COc1cc2c(cc1Nc1ncc3c(N)c(F)c(-c4cnc5c(c4C)NCCO5)c(Cl)c3n1)CN(C)CC2 [Compound 2-94, (+ or −)-8-chloro-6-fluoro-N~2~-(6-methoxy-2-methyl-1,2,3,4-tetrahydroisoquinolin-7-yl)-7-(8-methyl-2,3-dihydro-1H-pyrido[2,3-b][1,4]oxazin-7-yl)quinazoline-2,5-diamine] | 5770
